Measured values published in patent US9458120B2, “Phenoxypropanol derivative and pharmaceutical composition including the same” (KOREA INSTITUTE OF SCIENCE AND TECHNOLOGY, priority 2011, dated 2016).

What was measured:
[1] = target: α1G T-type calcium channel (Homo sapiens, UniProt O43497); test: Assay for T-type calcium channel inhibition activity (FDSS6000 calcium imaging, KCl activation); type: cell-based; details: 75 s pre-treatment then KCl 75 mM, HEK293 cells expressing α1G T-type calcium channel and Kir2.1
Experimental: At 12-24 hours before the assay for T-type calcium channel activity, cells of HEK293 cell line (α1G cell line: KCTC 10519BP, GenBank, Korea Research Institute of Bioscience and Biotechnology) which stably express α1G T-type calcium channel and Kir2.1, were sub-cultured in a poly-L-lysine (0.05 mg/ml) treated 96-well plate with the density of 4×10^4 per a well using a 96-well cell dispenser (Titertek). On the day of assay, the 96-well plate to which the cells were attached were washed three times with a HEPES buffer solution (unit mM: 150 NaCl, 5 KCl, 1 MgCl2, 2 CaCl2, 10 HEPES, 10 glucose, pH 7.4) using a 96-well plate automatic washing device (Bio Tek), and then reacted with a HEPES buffer solution containing 5 μM fluo-3/AM and 0.001% (w/v) Pluronic F-127 at room temperature for 1 hour, to label with fluorescent dye, and then further washed twice with the HEPES buffer solution. Thereafter, at 10 minutes before the measurement using a FDSS6000 device, a washing with a HEPES buffer solution containing 10 mM CaCl2 was conducted once more, and the final volume was adjusted to 81 μl. Besides the above 96-well plate containing the cells, additional two 96-well drug plates were provided, in which the 96-well plates contained KCl (final concentration: 75 mM) for activating T-type calcium channel and a blocker drug, respectively.
Since most of cell-based HTS (High throughput screening) devices are equipped with a liquid application system for drug injection, but have no liquid sucking system, the blocker drug to be tested and KCl were respectively provided at the five-times higher concentration in 10 mM CaCl2 HEPES buffer solution at the amount of 27 μl, diluted five-times at the final cell plate volume of 135 μl, and then used in this test. In this Experimental Example, therefore, FDSS6000 (Hamamatsu Photonics) was used as an alternative to HTS device.
Specific FDSS6000 measurement conditions are as follows: After recording the reference value of 20 seconds, the change of intracellular calcium concentration which induced by pre-treatment of the drug (the prepared […]) for 75 seconds followed by administration of KCl was measured, in which the percentage (%) inhibition effect of the test drug was determined, through estimating the area of ratio value of 340/380 in the control without treatment of the test drug as 100%. As a reference drug, 10 μM of mibefradil was always used.
For accurate calcium-imagination, the light sources of 4 xenon lamps in FDSS6000 were radiated to make the cells exposed selectively to the excitation wavelength (340 nm and 380 nm) by computer-controlled filter wheel. Data was obtained at interval of each 1.23 second. The emitter fluorescence light inflow through a 515 nm long-pass filter was obtained as an average 340/380 ratio value for each well in the 96-wells by a cooled CCD camera and digital fluorescence analyzer in the device. All image data and analysis were obtained by using a FDSS6000-exclusive program provided by Hamamatsu Photonics, as described above.

TREK-1 channel = target: T1, TREK-1 channel (Rattus norvegicus, UniProt Q920B6); test: Assay for TREK channel inhibition activity (whole cell patch clamp recording, COS7 cell transfected with GFP-rTREK-1); type: cell-based; details: COS7 cells, GFP-rTREK-1, whole-cell patch clamp; for inhibition at 101 µM: COS-7, Table 3 (value ± spread), 101 μM [sic], read-out: block % at 101 μM; for inhibition at 10 µM: COS-7, Table 2, read-out: block % at 10 μM
T1 construct: expressed in transfected cells; host or cells: COS7 (Korean Cell Line Bank), transient transfection with Effectene
T1 sequence (Q920B6 1-426): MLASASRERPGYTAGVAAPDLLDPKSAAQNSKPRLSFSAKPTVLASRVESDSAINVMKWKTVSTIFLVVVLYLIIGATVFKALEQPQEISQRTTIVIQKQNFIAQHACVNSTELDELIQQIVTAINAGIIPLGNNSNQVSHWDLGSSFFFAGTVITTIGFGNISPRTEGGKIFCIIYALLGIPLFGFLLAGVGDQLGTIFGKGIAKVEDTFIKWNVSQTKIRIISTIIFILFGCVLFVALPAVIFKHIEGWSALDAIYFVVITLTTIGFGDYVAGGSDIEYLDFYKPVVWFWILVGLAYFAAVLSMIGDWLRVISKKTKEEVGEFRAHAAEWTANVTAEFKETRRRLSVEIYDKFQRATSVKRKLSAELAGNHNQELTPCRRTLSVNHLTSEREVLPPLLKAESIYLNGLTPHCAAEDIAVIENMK
Experimental: The inhibition activity of the compound of the present invention against TREK-1 channel was measured by measuring the physiological activity by whole cell patch clamp recording.
COS7 cell (obtained from Korean Cell Line Bank (KCLB)) was transfected with GFP-rTREK-1 gene (accession number: AY727922) using an Effectene transfection reagent (Qiagen), and cultured for 24 hours in an incubator at 37° C. As a culture medium, Dulbecco's modified Eagle's medium (DMEM, GIBCO products from Invitrogen) containing 10% by weight of fetal bovine serum (FBS) and 1% by weight of penicillin/streptomycin (5000 unit/ml) was used. The cells thus prepared were adhered on a cover glass, which was placed on a chamber, and then a recording solution (150 mM NaCl, 10 mM HEPES, 10 mM KCl, 2 mM CaCl2, 5.5 mM D-Glucose, all reagents were purchased from Sigma) was applied. A glass microelectrode was filled with an intracellular solution prepared with the composition of 150 mM KCl, 5 mM EGTA, 10 mM HEPES, 0.5 mM CaCl2, 1 mM MgCl2, 4 mM Mg-ATP, and 0.3 mM Na-GTP (all reagents were purchased from Sigma), followed by whole-cell patch clamp recording. The voltage was fixed at −70 mV using a Digidata 1322A data acquisition system (Molecular Devices) and an Axopatch 200A amplifier (Axon Instruments), and the current generated by applying a voltage ramp from −100 mV to +100 mV for 1 second was measured using a Clampex9.2 program. A difference between the current values measured at +100 mV and −100 mV was defined as a current in the above experiment. The currents before and after blocker treatment were measured so as to determine the inhibition activity.
Block %=100−(current after blocker treatment/current before blocker treatment)*100

Chain of α1G T-type calcium channel (O43497 whole entry): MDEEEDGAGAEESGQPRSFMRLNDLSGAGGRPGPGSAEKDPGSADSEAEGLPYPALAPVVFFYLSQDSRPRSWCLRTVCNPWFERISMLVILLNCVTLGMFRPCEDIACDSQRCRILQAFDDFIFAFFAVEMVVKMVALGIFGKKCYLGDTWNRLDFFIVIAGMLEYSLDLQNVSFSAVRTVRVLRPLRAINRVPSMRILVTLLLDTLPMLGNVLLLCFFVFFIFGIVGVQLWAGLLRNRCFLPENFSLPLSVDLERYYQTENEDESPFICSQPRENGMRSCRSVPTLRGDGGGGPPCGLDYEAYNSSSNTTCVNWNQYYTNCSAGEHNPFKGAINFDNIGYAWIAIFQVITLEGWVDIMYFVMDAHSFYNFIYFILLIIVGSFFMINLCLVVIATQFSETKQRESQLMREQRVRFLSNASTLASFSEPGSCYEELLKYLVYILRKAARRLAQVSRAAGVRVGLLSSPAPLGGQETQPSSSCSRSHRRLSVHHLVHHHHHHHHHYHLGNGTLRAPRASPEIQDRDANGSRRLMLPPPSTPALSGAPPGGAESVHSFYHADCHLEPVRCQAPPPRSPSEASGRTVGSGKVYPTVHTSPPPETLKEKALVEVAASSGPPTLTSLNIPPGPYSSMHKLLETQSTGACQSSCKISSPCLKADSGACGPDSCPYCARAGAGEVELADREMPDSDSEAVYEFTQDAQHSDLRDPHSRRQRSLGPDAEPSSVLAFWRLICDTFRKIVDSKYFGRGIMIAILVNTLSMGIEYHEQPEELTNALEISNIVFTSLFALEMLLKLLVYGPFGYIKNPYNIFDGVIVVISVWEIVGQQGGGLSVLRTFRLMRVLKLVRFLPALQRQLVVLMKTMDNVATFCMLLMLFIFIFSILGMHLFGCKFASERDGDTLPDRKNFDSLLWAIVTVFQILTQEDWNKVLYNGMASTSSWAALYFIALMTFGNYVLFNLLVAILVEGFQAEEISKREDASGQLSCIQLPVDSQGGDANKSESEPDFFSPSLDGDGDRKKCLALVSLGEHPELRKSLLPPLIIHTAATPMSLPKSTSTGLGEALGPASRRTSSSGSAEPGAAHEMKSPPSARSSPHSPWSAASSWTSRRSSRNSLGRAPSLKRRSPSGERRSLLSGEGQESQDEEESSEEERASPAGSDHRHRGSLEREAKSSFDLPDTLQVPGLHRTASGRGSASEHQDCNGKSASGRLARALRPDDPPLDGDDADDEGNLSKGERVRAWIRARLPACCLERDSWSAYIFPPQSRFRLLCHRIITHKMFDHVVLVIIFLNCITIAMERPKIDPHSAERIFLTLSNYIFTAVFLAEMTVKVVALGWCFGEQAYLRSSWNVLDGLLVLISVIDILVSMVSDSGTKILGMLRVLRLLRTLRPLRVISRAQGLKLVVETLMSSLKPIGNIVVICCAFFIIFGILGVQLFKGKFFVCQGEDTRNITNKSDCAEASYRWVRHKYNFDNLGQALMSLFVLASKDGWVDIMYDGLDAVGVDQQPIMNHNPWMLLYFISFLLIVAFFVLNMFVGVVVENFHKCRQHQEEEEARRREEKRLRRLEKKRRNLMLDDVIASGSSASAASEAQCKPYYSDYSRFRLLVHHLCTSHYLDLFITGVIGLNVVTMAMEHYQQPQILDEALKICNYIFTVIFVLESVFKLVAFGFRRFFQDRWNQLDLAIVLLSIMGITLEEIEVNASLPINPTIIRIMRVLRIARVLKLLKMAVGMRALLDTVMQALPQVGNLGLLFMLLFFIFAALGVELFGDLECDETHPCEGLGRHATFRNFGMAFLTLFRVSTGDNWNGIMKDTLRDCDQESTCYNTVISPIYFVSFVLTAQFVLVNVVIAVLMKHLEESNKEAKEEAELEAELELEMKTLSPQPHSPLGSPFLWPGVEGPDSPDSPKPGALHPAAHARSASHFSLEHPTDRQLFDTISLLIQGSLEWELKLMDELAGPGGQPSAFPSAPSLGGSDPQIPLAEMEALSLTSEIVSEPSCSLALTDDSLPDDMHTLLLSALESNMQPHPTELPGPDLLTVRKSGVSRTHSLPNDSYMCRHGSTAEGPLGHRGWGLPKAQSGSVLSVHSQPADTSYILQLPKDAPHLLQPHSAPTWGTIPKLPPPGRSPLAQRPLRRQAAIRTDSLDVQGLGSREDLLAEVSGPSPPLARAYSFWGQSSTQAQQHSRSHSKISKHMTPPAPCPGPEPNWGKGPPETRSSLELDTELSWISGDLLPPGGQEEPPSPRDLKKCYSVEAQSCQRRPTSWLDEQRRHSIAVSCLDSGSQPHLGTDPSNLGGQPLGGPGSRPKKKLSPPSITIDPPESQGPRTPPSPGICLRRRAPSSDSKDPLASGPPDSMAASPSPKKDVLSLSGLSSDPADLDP

SMILES | inhibition [1] | inhibition at 101 µM (TREK-1 channel) | inhibition at 10 µM (TREK-1 channel) | block % at 100 μM (TREK-1 channel; Table 2) | block % at 100 μM (TREK-1 channel; Table 3 (value ± spread))
OC(COc1ccc(F)cc1)CN1CCN(Cc2nccn2Cc2ccccc2)CC1 (stereo in doubt) [KKRE10154, (R)-1-(4-((1-benzyl-1H-imidazol-2-yl)methyl)piperazin-1-yl)-3-(4-fluorophenoxy)propan-2-ol] | 39.9% | 26.5 ± 3.97% |  |  | 
Cc1ccc(OC[C@@H](O)CN2CCN(Cc3c(F)cccc3Cl)CC2)cc1 [KKRE10138] |  | 13 ± 10.1% | 13% | 71.47% | 71.47 ± 3.30%
O=C(CN1CCN(C[C@@H](O)COc2ccc(C(F)(F)F)cc2)CC1)Nc1ccc(F)cc1 [KKRE10145] |  | 35.2 ± 4.89% | 35.2% |  | 
O[C@@H](COc1ccc(C(F)(F)F)cc1)CN1CCN(Cc2nccn2Cc2ccccc2)CC1 [KKRE10153, (R)-1-(4-((1-benzyl-1H-imidazol-2-yl)methyl)piperazin-1-yl)-3-(4-(trifluoromethyl)phenoxy)propan-2-ol] | 46.9% | 52.1 ± 7.24% | 52.1% |  | 
O[C@@H](COc1ccc(F)cc1)CN1CCN(Cc2nccn2Cc2ccccc2)CC1 [KKRE10155, (R)-1-(4-((1-benzyl-1H-imidazol-2-yl)methyl)piperazin-1-yl)-3-(4-fluorophenoxy)propan-2-ol] | 33.7% | 24 ± 10.6% |  |  | 
O[C@@H](COc1ccc(F)cc1)CN1CCC(N2CCOCC2)CC1 [KKRE10156, (R)-1-(4-fluorophenoxy)-3-(4-morpholinopiperidin-1-yl)propan-2-ol] | 5.31% | 16.4 ± 5.65% |  |  | 
O[C@H](COc1ccc(F)cc1)CN1CCC(N2CCOCC2)CC1 [KKRE10157, (S)-1-(4-fluorophenoxy)-3-(4-morpholinopiperidin-1-yl)propan-2-ol] | 9.33% | 29.6 ± 3.71% |  |  | 
O[C@@H](COc1ccc(F)cc1)CN1CCC(N2CCCCC2)CC1 [KKRE10158, (R)-1-(1,4′-bipiperidin-1′-yl)-3-(4-fluorophenoxy)propan-2-ol] | 6.65% | 16.8 ± 2.73% |  |  | 
COc1cccc(C2CCN(C[C@@H](O)COc3ccc(F)cc3)CC2)c1 [KKRE10162, (R)-1-(4-fluorophenoxy)-3-(4-(3-methoxyphenyl)piperidin-1-yl)propan-2-ol] |  | 52.5 ± 6.76% | 52.5% |  | 
O=C(CN1CCN(CC(O)COc2ccc(C(F)(F)F)cc2)CC1)NC1CCCCC1 (stereo not drawn) [KKRE10177, N-cyclohexyl-2-(4-(2-hydroxy-3-(4-(trifluoromethyl)phenoxy)propyl)piperazin-1-yl)acetamide] | 42% |  |  |  | 
O[C@H](COc1ccc(C(F)(F)F)cc1)CN1CCC(N2CCCC2)CC1 [KKRE10189, (S)-1-(4-(pyrrolidin-1-yl)piperidin-1-yl)-3-(4-(trifluoromethyl)phenoxy)propan-2-ol] | 8.45% |  |  |  | 
O[C@H](COc1ccc(C(F)(F)F)cc1)CN1CCC(F)(F)CC1 [KKRE10190, (S)-1-(4,4-difluoropiperidin-1-yl)-3-(4-(trifluoromethyl)phenoxy)propan-2-ol] | 35% |  |  |  | 
O[C@H](COc1ccc(C(F)(F)F)cc1)CN1CCC(O)(c2ccccc2)CC1 [KKRE10191, (S)-1-(2-hydroxy-3-(4-(trifluoromethyl)phenoxy)propyl)-4-phenylpiperidin-4-ol] | 16.8% |  |  |  | 
Cc1ccc(CNC(=O)CN2CCN(C[C@H](O)COc3ccccc3)CC2)cc1 [KKRE10205, (S)-2-(4-(2-hydroxy-3-phenoxypropyl)piperazin-1-yl)-N-(4-methylbenzyl)acetamide] |  | 26.4 ± 12.2% | 26.4% |  | 
O=C(CN1CCN(C[C@@H](O)COc2ccccc2)CC1)NCc1ccc(C(F)(F)F)cc1 [KKRE10206, (R)-2-(4-(2-hydroxy-3-phenoxypropyl)piperazin-1-yl)-N-(4-(trifluoromethyl)benzyl)acetamide] |  | 44 ± 7.7% |  |  | 
O=C(CN1CCN(C[C@H](O)COc2ccccc2)CC1)NCc1ccc(C(F)(F)F)cc1 [KKRE10207, (S)-2-(4-(2-hydroxy-3-phenoxypropyl)piperazin-1-yl)-N-(4-(trifluoromethyl)benzyl)acetamide] |  | 53 ± 5.98% | 53% |  | 
O=C(CN1CCN(C[C@@H](O)COc2ccc(C(F)(F)F)cc2)CC1)NCc1cc(C2CC2)n(-c2ccccc2)n1 [KKRE10212, (R)-N-((5-cyclopropyl-1-phenyl-1H-pyrazol-3-yl)methyl)-2-(4-(2-hydroxy-3-(4-(trifluoromethyl)phenoxy)propyl)piperazin-1-yl)acetamide] | 74.3% |  |  |  | 
CC(C)Cc1cc(CN2CCN(C[C@@H](O)COc3ccc(C(F)(F)F)cc3)CC2)nn1-c1ccccc1 [KKRE10231] |  | 48.5 ± 4.26% |  |  | 
CC(C)Cc1cc(CN2CCN(C[C@H](O)COc3ccc(F)cc3)CC2)nn1-c1ccccc1 [KKRE10232] |  | 21.7 ± 3.13% |  |  | 
CC(C)Cc1cc(CN2CCN(C[C@@H](O)COc3ccc(F)cc3)CC2)nn1-c1ccccc1 [KKRE10233] |  | 21.6 ± 4.63% |  |  | 
CC(C)Cc1cc(CN2CCN(C[C@H](O)COc3ccc(C(F)(F)F)cc3)CC2)nn1-c1ccccc1 [KKRE10234] |  | 84.2 ± 2.22% |  |  | 
CC[C@H]1CN2CC[C@H]1C[C@H]2[C@H](O)c1ccnc2ccc(OC)cc12 [hydroquinine, reference compound] |  | 19.8 ± 9.57% | 19.8% | 49.71% | 49.71 ± 5.83%
C=C[C@H]1C[N@@]2CC[C@H]1C[C@@H]2[C@@H](O)c1ccnc2ccc(OC)cc12 [quinidine, reference compound] |  |  |  | 33.46% | 33.46 ± 8.09%
C=C[C@H]1C[N@@]2CC[C@H]1C[C@H]2[C@H](O)c1ccnc2ccc(OC)cc12 [quinine, reference compound] |  | 17 ± 6.93% | 17% | 50.00% | 50.00 ± 5.72%
